Among the data in PubChem BioAssay AID1259420 (Broad Institute, 2018) are AC50 values, retold here.

Structures are written as SMILES. Values joined by “and” are separate entries in the source; they are usually repeats but may differ in a detail not shown here. Identical values can stand only once. Records with an inconclusive call do not appear. Active and inactive are the calls of the source. How the calls were made is not given here.

What is called AC50 is the concentration at which the activity in the assay is half-maximal.

The experiment concerns Toxoplasma gondii growth in host cells, no IFN-gamma. Kind of experiment: T. gondii intracellular growth, IFN-gamma absent, dose response, cell-based (AID 1259420).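 Further: host cells were HeLa; final incubation lasted 72 hours.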

`Cc1ccccc1CN1C[C@@H]2c3nc(N4CCCC(C)C4)ncc3CS(=O)(=O)[C@H]2C1` (stereo partly specified): the AC50 was 28.2 µM.
Turning to `O=C1c2c(O)ccc(O)c2C(=O)c2c(NCCNCCO)ccc(NCCNCCO)c21`, the AC50 was 0.209 µM.
The same measure for `C/C=C/c1ccc(C2[C@@H]3CN(S(=O)(=O)c4ccccc4F)C[C@H]2N3)cc1` (stereo partly specified): 20.7 µM.
As for `CN1C(=O)c2cc(NC(=O)Cc3cccs3)ccc2OC[C@H]2O[C@H](CC(=O)NCc3ccc(-c4ccccc4)cc3)CC[C@@H]21`, the figure is 29.4 µM; as for `O=C(c1ccc(F)cc1)N1CC(=O)N2[C@@H](CO)[C@@H](c3ccc(C#CCC4CCCC4)cc3)[C@@H]2C1`, 21.2 µM; as for `CCCC(Nc1nc(-c2cccnc2)nc2c1cnn2C)c1cccs1` (stereo unspecified), > 39 µM (inactive).
Turning to `CCCNC(=O)N1[C@@H](C#N)[C@H](c2ccc(C#Cc3cccc(F)c3)cc2)[C@@H]1CO`, the AC50 is 19.3 µM.
The same measure for `COc1ccccc1NC(=O)N1CC(=O)N2[C@H](CO)[C@H](c3ccc(C#CC(C)C)cc3)[C@H]2C1`: > 39 µM (inactive); for `CN1c2ccc(-c3ccccc3)cc2[C@@H]2[C@@H](CCN2C(=O)NC2CCCCC2)[C@H]1CO`: 8.76 µM; for `Cc1ccc(S(=O)(=O)N2CC[C@@H]3[C@@H](CO)Nc4ccc(-c5cccc(C(=O)N(C)C)c5)cc4[C@@H]32)cc1`: 13.8 µM.
As for `CN1c2ccc(C#Cc3cccnc3)cc2[C@@H]2[C@@H](CCN2C(=O)c2cccc(F)c2)[C@@H]1CO`, the figure is 30.3 µM.
Regarding `Cc1cnc(N2CCC3(CCC(CC(=O)N4CC=CC4)CC3)CC2)nc1`, the AC50 was 22.6 µM.
For the molecule `COc1cc([C@@H]2c3cc4c(cc3C(OC3OC5COC(C)OC5C(O)C3O)C3OCC(=O)[C@@H]32)OCO4)cc(OC)c1O` (stereo partly specified), the AC50 is 13.7 µM.
As for `Cn1cccc1C(=O)N1CCC2(CC1)CN(CC1CC1)C(=O)CO2`, the figure is 36.8 µM.
`COc1ccccc1-c1ccc2c(c1)[C@H]1[C@H](CCN1C(=O)C1CCC1)[C@H](CO)N2`: the AC50 was 13 µM.
The same measure for `COc1ccccc1-c1ccc(C2[C@@H]3CN(S(=O)(=O)c4ccc(C)cc4)C[C@H]2N3)cc1` (stereo partly specified): 15.2 µM and > 20 µM (inactive).
As for `OC[C@H]1[C@@H](c2ccc(C#Cc3ccccc3F)cc2)[C@@H]2CN(CC3CCOCC3)CCCCN12`, the figure is 14.8 µM.
The same measure for `CN(C)C(=O)c1ccc(-c2ccc3c(c2)[C@@H]2[C@@H](CCN2C(=O)C2CCCC2)[C@H](CO)N3C)cc1`: 10.9 µM.
On to `CC(C)(O)CC(=O)NCCn1ccc2ncnc(Nc3ccc(Oc4cccc(C(F)(F)F)c4)c(Cl)c3)c21`, for which the AC50 is > 39 µM (inactive).
As for `COc1cccc(-c2ccc3c(c2)[C@H]2[C@H](CCN2S(=O)(=O)c2ccccc2F)[C@@H](CO)N3)c1`, the figure is 11.5 µM and 6.32 µM; as for `N#Cc1cccc(-c2ccc3c(c2)[C@H]2[C@H](CCN2Cc2ccc4c(c2)OCO4)[C@@H](CO)N3)c1`, 15 µM; as for `COc1cccc(S(=O)(=O)N2CC[C@@H]3[C@H](CO)Nc4ccc(C5=CCCCC5)cc4[C@@H]32)c1`, 14.1 µM.
Consider `COc1ccc(-c2ccc3c(c2)[C@H]2[C@H](CCN2C(=O)c2cccc(F)c2)[C@H](CO)N3)cc1`, for which the AC50 is 14.3 µM.
In the case of `CS(=O)(=O)N1CC(=O)N2[C@@H](CO)[C@H](c3ccc(C#Cc4ccc(F)cc4)cc3)[C@@H]2C1`, the AC50 is 28 µM.
The same measure for `O=C(NC1CCCCC1)N1C[C@@H]2N[C@H](C1)C2c1ccc(-c2ccc(F)cc2)cc1` (stereo partly specified): 23 µM; for `CN(C)C(=O)c1ccc(-c2ccc3c(c2)[C@H]2[C@H](CCN2C(=O)C2CCCC2)[C@@H](CO)N3C)cc1`: 14.6 µM.
The same measure for `CCCNC(=O)N1[C@H](C#N)[C@@H](c2ccc(-c3ccccc3F)cc2)[C@H]1CO`: 31.9 µM.
`N#Cc1ccc(-c2ccc([C@H]3[C@@H](CO)N4C(=O)CNC[C@@H]34)cc2)cc1`: the AC50 was > 39 µM (inactive).
With `c1ccc2c(Oc3nc(Nc4ccc(N5CCOCC5)cc4)c4ncn(C5CCCCC5)c4n3)cccc2c1`, the half-maximal activity concentration (AC50) is 12.7 µM.
For the molecule `O=C(c1cccc(F)c1)N1CCCCN2[C@H](CO)[C@H](c3ccc(C#CC4(O)CCCC4)cc3)[C@H]2C1`, the AC50 is 32.1 µM.
As for `O=C(Nc1ccc(F)cc1)N1CC(=O)N2[C@H](C1)[C@H](c1ccc(-c3cccc(F)c3)cc1)[C@@H]2CO`, the figure is 15 µM; as for `CN(C)C(=O)COC[C@@H]1CC[C@H]2[C@H](CCN2CC2CC2)O1`, > 39 µM (inactive).
Regarding `COc1cccc(-c2ccc3c(c2)[C@@H]2[C@@H](CCN2S(=O)(=O)c2ccccc2F)[C@H](CO)N3)c1`, the AC50 is 10.9 µM.
The same measure for `Cc1cccc(-c2ccc([C@H]3[C@@H](CO)N4CCCCN(S(=O)(=O)c5ccccc5F)C[C@H]34)cc2)c1`: 16.4 µM and 19.5 µM.
With `O=C1CNC[C@H]2[C@@H](c3ccc(Br)cc3)[C@H](CO)N12`, the AC50 was 35.9 µM.
Consider `COCC1CN(C(=O)c2cc(C)on2)Cc2c1cnn2CC1CC1` (stereo unspecified), for which the AC50 was > 39 µM (inactive).
As for `COc1ccc(-c2cnc3n2CCNC32CCN(C(=O)N3CCOCC3)CC2)cc1`, the figure is > 39 µM (inactive); as for `CCCNC(=O)N1[C@H](C#N)[C@H](c2ccc(-c3ccccc3F)cc2)[C@H]1CO`, 11.3 µM.
As for `O=c1[nH]c(=O)n([C@H]2C[C@H](O)[C@@H](CO)O2)cc1F`, the figure is 0.346 µM; as for `Clc1cncc(OC[C@H]2CO[C@@H]3CN(Cc4cccs4)C[C@@H]23)c1`, > 39 µM (inactive).
Turning to `Cc1cc(C(=O)Nc2ccc3c(c2)C(=O)N(C)[C@@H]2CC[C@@H](CC(=O)NCc4ccc(-c5ccccc5)cc4)O[C@@H]2CO3)no1`, the AC50 was 17.9 µM.
Take `CSCc1noc(CN2CCCC3(C2)CN(C)C(=O)O3)n1` (stereo unspecified): the AC50 was > 39 µM (inactive).
On to `COCCNC(=O)C[C@@H]1C[C@@H]2CN(Cc3ccncc3)C[C@H]2O1`, for which the AC50 is 29 µM.
The same measure for `O=C(C1CCC1)N1CC[C@H]2CN(Cc3cccc(Cl)c3)S(=O)(=O)[C@@H]2CC1`: > 39 µM (inactive); for `O=C1CC(c2ccncc2)C2(CCN(Cc3nccs3)CC2)N1` (stereo unspecified): > 39 µM (inactive); for `COc1ccccc1NC(=O)N1C[C@@H]2N[C@H](C1)C2c1ccc(/C=C/c2ccccc2)cc1` (stereo partly specified): 6.68 µM.
The same measure for `CCCCOc1ccc2c(=O)c(-c3cc(C(=O)OC)oc3C)c(C(F)(F)F)oc2c1C`: 8.86 µM and 8.94 µM; for `CN(C)C(=O)c1ccc(-c2ccc3c(c2)[C@@H]2[C@@H](CCN2C(=O)C2CCCC2)[C@@H](CO)N3C)cc1`: 17.5 µM.
Regarding `CCN1CCN(Cc2ccc(Nc3nc(-c4ccc(OC)cc4)nc4ccccc34)cc2)CC1`, the AC50 is 13.5 µM.
As for `CN1c2ccc(-c3ccc(C#N)cc3)cc2[C@@H]2[C@@H](CCN2S(=O)(=O)c2ccc(F)cc2)[C@@H]1CO`, the figure is 13 µM.
For `COc1ccc(-c2nc(N3CCC(N4CCCCC4)CC3)c3ccccc3n2)cc1`, the AC50 was > 39 µM (inactive).
On to `CC(C)NC(=O)N1CC[C@@H]2[C@H]1c1cc(-c3ccc(F)cc3)ccc1N(C)[C@@H]2CO`, for which the AC50 was > 20 µM (inactive).
As for `CC(C)NC(=O)N1CC(=O)N2[C@@H](CO)[C@H](c3ccc(/C=C/c4ccccc4)cc3)[C@@H]2C1`, the figure is > 39 µM (inactive); as for `O=c1c(O)c(-c2ccc(O)c(O)c2)oc2cc(O)cc(O)c12`, 15.8 µM; as for `COc1cccc(NC(=O)N2CC(=O)N3[C@H](C2)[C@H](c2ccc(C#CCC4CCCC4)cc2)[C@@H]3CO)c1`, 16.9 µM.
The same measure for `Cc1ccccc1-c1ccc(C2[C@@H]3CN(C(=O)c4ccc(F)cc4)C[C@H]2N3)cc1` (stereo partly specified): > 42 µM (inactive); for `COc1ccc(-c2ccc3c(c2)[C@H]2[C@H](CCN2C(=O)c2cccc(F)c2)[C@@H](CO)N3)cc1`: 10.6 µM; for `COCC(=O)N1CC(=O)N2[C@H](CO)[C@@H](c3ccc(C#CC4CC4)cc3)[C@@H]2C1`: > 39 µM (inactive).
Take `O=C(Nc1ccc(F)cc1)N1CC(=O)N2[C@H](CO)[C@H](c3ccc(-c4cccc(F)c4)cc3)[C@H]2C1`: the AC50 was 31.1 µM.
Consider `O=C(Cc1ccc(Cl)cc1)N1CC2(CCN(Cc3ccc(C(F)(F)F)cc3)CC2)C1`, for which the AC50 was > 39 µM (inactive).
The same measure for `CC(C)Oc1ccc(NC(=O)c2nc3c(n2C(C)C)CCN(C(=O)c2ccccc2)C3)cc1`: 31.9 µM.
The same measure for `CN(C[C@H]1[C@H](c2ccccc2)[C@@H](CO)N1CC1CC1)C(=O)c1ccc(F)cc1`: > 39 µM (inactive).
The same measure for `COc1cccc(NC(=O)N2CC(=O)N3[C@H](CO)[C@H](c4ccc(C#CCC5CCCC5)cc4)[C@H]3C2)c1`: 13.9 µM and 16.2 µM; for `COc1ccc(-c2nc3c(s2)CN(S(=O)(=O)c2cc(C)cc(C)c2)CC3)cc1`: 5.99 µM.
With `N#C[C@@H]1[C@@H](c2ccc(C#Cc3cccnc3)cc2)[C@@H](CO)N1C(=O)NC1CCCCC1`, the AC50 is > 39 µM (inactive).
As for `CCc1cnc(N2[C@@H](C#N)[C@@H](c3ccc(C4=CCCCC4)cc3)[C@@H]2CO)s1`, the figure is > 20 µM (inactive); as for `c1csc(-c2cc(NC3CCNCC3)nc3[nH]ccc23)n1`, 37 µM; as for `CCCNC(=O)N1[C@H](CO)[C@@H](c2ccc(-c3ccccc3F)cc2)[C@@H]1C#N`, > 39 µM (inactive).
For `Cc1cc(C)n(C)c(=O)c1C(=O)N1CCOC(C(F)(F)F)C1` (stereo unspecified), the AC50 is > 39 µM (inactive).
In the case of `O=S(=O)(c1ccccc1F)N1CCC(c2nc3ccc(-c4ccncc4)cn3n2)CC1`, the AC50 is > 39 µM (inactive).
In the case of `COc1cccc(NC(=O)N2CC(=O)N3[C@H](C2)[C@@H](c2ccc(C#CCC4CCCC4)cc2)[C@@H]3CO)c1`, the AC50 is 15.8 µM and 22.4 µM.
The same measure for `C[C@@H]1CN([C@@H](C)CO)C(=O)Cc2cc(NC(=O)C3CCCCC3)ccc2O[C@@H]1CN(C)Cc1ccc(Cl)c(Cl)c1`: 13.9 µM; for `COc1ccccc1S(=O)(=O)N1CC[C@@H]2[C@@H](CO)Nc3ccc(-c4ccc(C#N)cc4)cc3[C@@H]21`: 19.8 µM.
The same measure for `CCCNC(=O)N1C[C@@H]2N[C@H](C1)C2c1ccc(-c2ccc(OC)cc2)cc1` (stereo partly specified): 14.2 µM; for `Cc1cc(Nc2cc(N3CCN(C)CC3)nc(Sc3ccc(NC(=O)C4CC4)cc3)n2)n[nH]1`: 18.7 µM.
The same measure for `O=C(Nc1ccc(F)cc1)N1C[C@@H]2N[C@H](C1)C2c1ccc(/C=C/c2ccccc2)cc1` (stereo partly specified): 9.87 µM.
